The target of assay [1] is T1, PARS (Mus musculus, UniProt P11103).
T1 construct: endogenous in cells; host or cells: RAW murine macrophages
As to the kind of experiment: Cell protection assay: PARS activity in peroxynitrite-treated raw murine macrophages. To be noted: peroxynitrite 750 μM, 3H-NAD incorporation, calculated from a dose-response curve. The format is cell-based. The protocol:
The media was removed and replaced with 0.5 mL HEPES (pH 7.5) containing 0.01% digitonin and ^3H-NAD (0.5 μCi/mL, final concentration of NAD+ in buffer is […]) and the resultant mixture was allowed to stand for 20 minutes. […] The tubes were maintained at 4° C. for four hours, centrifuged at 1800 g for 10 minutes, and the supernatant removed. […] The contents of the tubes were then added to ScintiSafe Plus scintillation liquid (6.5 ml, Fisher Scientific) and radioactivity was measured using a liquid scintillation counter (Wallac, Gaithersburg, Md.).

Assay [2] deals with T2, purified PARS enzyme (Homo sapiens, UniProt P09874).
T2 construct: purchased Trevigen, Gaithersburg, Md
T2 sequence (P09874 whole entry): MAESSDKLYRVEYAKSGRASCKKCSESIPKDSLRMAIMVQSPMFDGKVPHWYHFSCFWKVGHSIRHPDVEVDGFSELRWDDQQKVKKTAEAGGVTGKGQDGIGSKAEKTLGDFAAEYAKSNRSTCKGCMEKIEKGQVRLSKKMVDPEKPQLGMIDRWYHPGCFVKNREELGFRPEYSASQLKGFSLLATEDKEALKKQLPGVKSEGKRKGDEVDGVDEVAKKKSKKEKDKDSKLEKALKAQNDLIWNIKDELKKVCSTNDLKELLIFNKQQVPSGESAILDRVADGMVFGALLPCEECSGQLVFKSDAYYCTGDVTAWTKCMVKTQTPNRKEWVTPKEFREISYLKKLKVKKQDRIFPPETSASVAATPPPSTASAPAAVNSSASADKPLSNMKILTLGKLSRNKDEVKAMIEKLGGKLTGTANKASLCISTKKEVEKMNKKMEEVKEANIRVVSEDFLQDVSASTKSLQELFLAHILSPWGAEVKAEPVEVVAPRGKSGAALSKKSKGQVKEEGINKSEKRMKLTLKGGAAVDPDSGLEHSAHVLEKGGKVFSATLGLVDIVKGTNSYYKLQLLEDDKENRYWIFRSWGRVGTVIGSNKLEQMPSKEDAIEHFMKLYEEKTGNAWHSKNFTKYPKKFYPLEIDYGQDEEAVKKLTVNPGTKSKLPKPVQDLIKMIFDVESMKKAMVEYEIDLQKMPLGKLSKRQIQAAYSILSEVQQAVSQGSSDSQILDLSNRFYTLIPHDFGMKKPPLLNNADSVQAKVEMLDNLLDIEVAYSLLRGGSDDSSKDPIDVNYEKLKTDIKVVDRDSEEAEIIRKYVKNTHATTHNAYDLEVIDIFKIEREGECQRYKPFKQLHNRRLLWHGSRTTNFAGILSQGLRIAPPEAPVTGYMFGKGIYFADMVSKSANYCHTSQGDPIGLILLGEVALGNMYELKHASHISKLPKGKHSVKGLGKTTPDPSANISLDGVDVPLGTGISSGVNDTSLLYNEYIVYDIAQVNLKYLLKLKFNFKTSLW
As to the kind of experiment: Purified PARS enzyme assay (Trevigen PARS inhibition assay kit). To be noted: Table 1, inhibitory effect on PARS; assay not given. Type of assay: biochemical. On the procedure:
The assay is performed in 96 well ELISA plates according to instructions provided with a commercially available PARS inhibition assay kit (for example, from Trevigen, Gaithersburg, Md.).
The assay was performed in 96 well ELISA plates according to instructions provided with a commercially available PARS inhibition assay kit (Trevigen, Gaithersburg, Md.). Briefly, wells were coated with 1 mg/ml histone (50 μl/well) at 4 C overnight. Plates were then washed four times with PBS and then blocked by adding 50 μl Strep-Diluent (supplied with the kit). After incubation (1 h, 25° C.), the plates were washed four times with PBS. […] The reaction was allowed to proceed for 30 min at room temperature. After 4 washes in PBS, incorporated biotin was detected by peroxidase-conjugated streptavidin (1:500 dilution) and TACS Sapphire substrate.

The EC50 is the concentration giving half of the maximal effect. One may read the IC50 as the concentration that gives 50% inhibition. A low value points to higher potency.

T1 sequence (P11103 whole entry): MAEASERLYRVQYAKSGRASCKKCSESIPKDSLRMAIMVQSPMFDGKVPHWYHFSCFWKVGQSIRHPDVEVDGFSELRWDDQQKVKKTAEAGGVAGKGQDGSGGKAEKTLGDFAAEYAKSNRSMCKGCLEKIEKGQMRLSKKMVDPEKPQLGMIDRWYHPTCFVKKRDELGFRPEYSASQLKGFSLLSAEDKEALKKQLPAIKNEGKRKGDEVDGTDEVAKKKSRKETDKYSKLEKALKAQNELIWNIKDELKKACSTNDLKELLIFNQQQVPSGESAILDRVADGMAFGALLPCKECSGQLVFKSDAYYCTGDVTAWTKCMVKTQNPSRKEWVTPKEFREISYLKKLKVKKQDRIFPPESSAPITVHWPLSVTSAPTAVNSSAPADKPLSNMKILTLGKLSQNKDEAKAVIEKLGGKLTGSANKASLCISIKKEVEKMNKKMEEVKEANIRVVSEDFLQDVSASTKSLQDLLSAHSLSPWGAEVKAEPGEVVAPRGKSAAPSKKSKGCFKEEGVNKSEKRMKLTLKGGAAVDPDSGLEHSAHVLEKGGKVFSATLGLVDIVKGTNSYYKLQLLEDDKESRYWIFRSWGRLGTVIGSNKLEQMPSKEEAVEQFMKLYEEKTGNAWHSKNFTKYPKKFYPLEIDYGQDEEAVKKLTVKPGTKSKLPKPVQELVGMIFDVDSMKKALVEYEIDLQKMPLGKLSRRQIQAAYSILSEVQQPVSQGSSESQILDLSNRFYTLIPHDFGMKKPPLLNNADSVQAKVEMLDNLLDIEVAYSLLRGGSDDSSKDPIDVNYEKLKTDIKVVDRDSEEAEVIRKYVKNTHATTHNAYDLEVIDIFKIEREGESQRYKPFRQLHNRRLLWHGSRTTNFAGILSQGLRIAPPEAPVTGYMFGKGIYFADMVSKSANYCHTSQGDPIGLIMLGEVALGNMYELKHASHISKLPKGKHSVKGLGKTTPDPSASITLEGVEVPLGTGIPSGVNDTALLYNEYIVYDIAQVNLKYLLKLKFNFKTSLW

Turning to `CN(C)CC(=O)Nc1cccc2c1Cc1c-2[nH]c(=O)c2ccccc12` [Compound 3a], the EC50 in assay [1] was 200 nM. On the same count and under the same terms, the result for `CN(C)CCC(=O)Nc1cccc2c1Cc1c-2[nH]c(=O)c2ccccc12` [Compound 3b] reads 280 nM. Turning to `O=C(CN1CC=C(c2ccccc2)CC1)Nc1ccc2c(c1)Cc1c-2[nH]c(=O)c2ccccc12` [Compound 12a, N-(5-Oxo-5,11-dihydro-6H-indeno[1,2-c]isoquinolin-9-yl)-2-(4-phenyl-3,6-dihydro-2H-pyridin-1-yl)-acetamide], in assay [2], the IC50 turned out to be 80 nM. Consider `CCCNC(=O)Nc1ccc2c(c1)Cc1c-2[nH]c(=O)c2ccccc12` [Compound 27], for which half-maximal inhibition in assay [2] (IC50) required 100 nM.

`CN(C)CC(=O)Nc1ccc2c(c1)-c1[nH]c(=O)c3ccccc3c1C2` [Compound 56a, N-[5,6-Dihydro-5-oxo-indeno[1,2-c]isoquinolin-8-yl]-N,N-dimethylacetamide] came in with an IC50 in assay [2] of 800 nM.

(Values after US20060287313A1, “Isoquinoline compounds and methods of use thereof” (Inotek Pharmaceuticals Corporation, priority 2005, published 2006).)
